Results published in patent US20250367323A1, “PLATFORM FOR RADIOLYTIC NEUROMODULATION” (THE UAB RESEARCH FOUNDATION, priority 2024, published 2025).
Read-outs that look alike come from different tables or passages of the source.

How the values were obtained:
[1] = system: isolated Drosophila brains
mouse TRPA1 (mTRPA1) = target: T1, mouse TRPA1 (mTRPA1) (Mus musculus, UniProt Q8BLA8); assay: Intracellular Ca2+ imaging (Fluo-4) in HEK293 cells expressing mTRPA1; assay type: cell-based; details: H2O2 10 μM, BITC 100 μM added at end of experiment
T1 construct: expressed in transfected cells; host or cells: HEK293
T1 sequence (Q8BLA8 whole entry): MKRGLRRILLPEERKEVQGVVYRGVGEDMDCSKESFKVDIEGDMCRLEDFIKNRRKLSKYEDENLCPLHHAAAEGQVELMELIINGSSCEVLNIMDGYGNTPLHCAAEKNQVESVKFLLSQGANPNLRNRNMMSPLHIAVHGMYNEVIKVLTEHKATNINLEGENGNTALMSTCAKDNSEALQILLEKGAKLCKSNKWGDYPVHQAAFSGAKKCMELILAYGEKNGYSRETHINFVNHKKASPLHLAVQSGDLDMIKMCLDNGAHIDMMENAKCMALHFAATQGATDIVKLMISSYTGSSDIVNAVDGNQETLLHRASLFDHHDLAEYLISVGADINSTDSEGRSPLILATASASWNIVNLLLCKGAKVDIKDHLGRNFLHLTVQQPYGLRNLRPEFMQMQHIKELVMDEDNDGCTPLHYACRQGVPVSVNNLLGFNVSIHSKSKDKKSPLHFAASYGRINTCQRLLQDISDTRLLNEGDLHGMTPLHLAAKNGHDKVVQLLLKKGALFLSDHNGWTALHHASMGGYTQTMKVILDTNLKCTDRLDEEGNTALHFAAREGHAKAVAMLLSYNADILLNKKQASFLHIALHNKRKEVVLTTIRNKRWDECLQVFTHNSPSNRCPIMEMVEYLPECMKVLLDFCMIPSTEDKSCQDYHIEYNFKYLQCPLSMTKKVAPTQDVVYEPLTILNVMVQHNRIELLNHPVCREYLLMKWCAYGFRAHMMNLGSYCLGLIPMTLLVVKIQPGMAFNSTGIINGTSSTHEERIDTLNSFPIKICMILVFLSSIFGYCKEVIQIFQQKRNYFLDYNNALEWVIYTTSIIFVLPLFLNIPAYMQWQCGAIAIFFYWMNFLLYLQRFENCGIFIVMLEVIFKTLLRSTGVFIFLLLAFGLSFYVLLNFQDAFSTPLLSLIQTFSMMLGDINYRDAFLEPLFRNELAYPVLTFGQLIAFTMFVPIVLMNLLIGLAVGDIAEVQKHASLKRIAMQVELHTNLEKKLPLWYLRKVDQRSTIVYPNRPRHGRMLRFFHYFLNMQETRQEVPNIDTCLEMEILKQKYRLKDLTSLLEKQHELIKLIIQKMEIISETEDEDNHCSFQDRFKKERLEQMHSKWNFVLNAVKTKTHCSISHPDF
Procedure: (§1) (FIG. 1A) Cells expressing either dTRPA1, mTRPA1, or mCherry were Xray irradiated (0.5 nGy/cm^2/sec) for 60 sec while monitoring changes in intracellular Ca^2+. BITC (100 μM) was added at the end of the experiments to confirm TRPA1 expression. […] (FIG. 1B) As in (FIG. 1A), except cells were stimulated with H2O2 (10 μM) administration. […] One-way ANOVA with Tukey's multiple comparisons test.
(§2) The Xrs source (FIG. 3A) was mounted to a Zeiss 710 LSM confocal imaging system. Changes in intracellular Ca^2+ were detected using a Fluo-4 Direct™ calcium assay kit. Fluo-4 epifluorescence changes were computed as (Fi-Fo; ΔF)/Fo, where Fi, is the fluorescence intensity at any frame and F0, is the resting fluorescence. F0 was calculated as the averaged fluorescence of the first 3 frames before stimulation.

[2] = system: HEK293 cells expressing mCherry; assay: Intracellular Ca2+ imaging (Fluo-4) in HEK293 cells expressing mCherry control; assay type: cell-based, human; details: HEK293 cells expressing mCherry only; H2O2 10 μM; BITC 100 μM added at end of experiment
Procedure: as §1, §2

dTRPA1(A)10b = target: T2, dTRPA1(A)10b (Drosophila melanogaster, UniProt Q7Z020); assay type: cell-based; details: for change in intracellular Ca2+ on agonist administration: HEK293 cells expressing dTRPA1(A)10b, H2O2 10 μM, BITC 100 μM added at end of experiment
T2 construct: expressed in transfected cells; host or cells: HEK293
T2 sequence (Q7Z020 with tags, fused parts or gaps isoform Q7Z020-5): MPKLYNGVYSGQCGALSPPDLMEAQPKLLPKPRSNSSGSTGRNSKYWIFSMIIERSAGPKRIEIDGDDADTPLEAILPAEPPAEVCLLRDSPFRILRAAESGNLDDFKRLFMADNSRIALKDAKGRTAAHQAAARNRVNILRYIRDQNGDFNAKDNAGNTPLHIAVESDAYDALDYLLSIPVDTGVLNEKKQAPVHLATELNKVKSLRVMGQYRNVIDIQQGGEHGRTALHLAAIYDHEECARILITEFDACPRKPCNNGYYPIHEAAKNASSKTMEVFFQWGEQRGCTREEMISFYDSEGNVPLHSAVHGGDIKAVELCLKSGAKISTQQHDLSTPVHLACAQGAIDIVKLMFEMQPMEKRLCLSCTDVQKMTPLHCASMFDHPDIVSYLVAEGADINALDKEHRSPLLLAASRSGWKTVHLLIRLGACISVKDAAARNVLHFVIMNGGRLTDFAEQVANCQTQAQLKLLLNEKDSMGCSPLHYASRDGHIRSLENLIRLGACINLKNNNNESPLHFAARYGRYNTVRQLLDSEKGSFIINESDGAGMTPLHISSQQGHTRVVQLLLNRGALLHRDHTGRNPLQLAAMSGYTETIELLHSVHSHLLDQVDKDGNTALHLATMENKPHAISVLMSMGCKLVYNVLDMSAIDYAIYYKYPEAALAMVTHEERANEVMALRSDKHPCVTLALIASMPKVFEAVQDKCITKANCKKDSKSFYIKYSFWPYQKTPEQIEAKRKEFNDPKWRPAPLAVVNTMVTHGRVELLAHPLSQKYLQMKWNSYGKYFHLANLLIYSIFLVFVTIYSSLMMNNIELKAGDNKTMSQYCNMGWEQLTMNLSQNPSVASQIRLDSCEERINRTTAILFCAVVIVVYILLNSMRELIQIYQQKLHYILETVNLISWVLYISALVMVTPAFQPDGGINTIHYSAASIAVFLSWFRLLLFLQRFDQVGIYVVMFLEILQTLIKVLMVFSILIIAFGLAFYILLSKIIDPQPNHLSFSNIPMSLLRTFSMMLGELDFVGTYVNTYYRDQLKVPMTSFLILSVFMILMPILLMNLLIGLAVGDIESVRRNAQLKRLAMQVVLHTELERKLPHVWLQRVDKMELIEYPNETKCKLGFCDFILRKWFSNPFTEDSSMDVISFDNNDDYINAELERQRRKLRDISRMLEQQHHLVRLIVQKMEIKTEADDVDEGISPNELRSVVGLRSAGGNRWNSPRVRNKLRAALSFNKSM
Procedure: as §1, §2

[3] = system: isolated Drosophila brains; details: brains perfused with 200 μM H2O2; electrode in vs out of brain p<0.0042; n=3
Drosophila = details: flies fed food containing H2O2 (1%) for 5 hours vs vehicle; 1 hour acclimation; p<0.03; n=29-30

Row | Compound | change in intracellular Ca2+ on agonist administration (mouse TRPA1 (mTRPA1)) | change in intracellular Ca2+ on agonist administration [2] | change in intracellular Ca2+ on agonist administration (dTRPA1(A)10b) | further results
1 | N[C@@H](Cc1ccc(O)c(I)c1)C(=O)O [3IY, 3-iodotyrosine] |  |  |  | effect on Xrs-stimulated DA release (AUC of amperometric signals) after DA depletion ([1]; 10 mg/mL orally administered to flies for 24 hr vs vehicle, p<0.013, n=13-15): significantly reduces the ability of Xrs to stimulate DA release
2 | S=C=NCc1ccccc1 [BITC, benzyl isothiocyanate] | increases intracellular Ca^2+ | modest increase in Ca^2+ | increases intracellular Ca^2+ | 
3 | OO [H2O2, hydrogen peroxide] | not observed | not observed | promotes an acute increase in intracellular Ca^2+ | DA release (peak amperometric current) [3]: stimulates DA release; locomotion (total beam crossings over a 4 hr period) (Drosophila): significantly stimulates locomotion
4 | CC(C)c1ccc(NC(=O)Cn2cnc3c2c(=O)n(C)c(=O)n3C)cc1 [HC-030031] |  |  |  | effect on Xrs-stimulated DA release (AUC of amperometric current) ([1]; Xrs 0.1 Gy/sec for 250 msec, brains incubated 5 min with 1 μM TTX or 100 μM HC-030031 vs control/vehicle): inhibits Xrs-stimulated DA release
5 | NC1=N[C@H](O)[C@H]2[C@H]3O[C@]4(O)O[C@@H]([C@@H](O)[C@@]2(N1)[C@@H]4O)[C@]3(O)CO [TTX, tetrodotoxin] |  |  |  | effect on Xrs-stimulated DA release (AUC of amperometric current) [1]: robustly inhibits this release
6 | CC1(C)CC(O)CC(C)(C)N1[O] [Tempol] |  |  |  | effect on Xray-induced Ca2+ increases (dTRPA1(A)10b; Xray irradiation, ROS scavenger present): blocked
